This is an account of results in patent US12570536B2, “Ammonia synthesis methods and systems” (President and Fellows of Harvard College, priority 2016, dated 2026).

One assay concerns the target nitrogenase. Particulars: competitive inhibition of nitrogenase; cited from earlier work.
In the next assay the test system is X. autotrophicus. Briefly: Extracellular NH3 production by the CoPi|Co-P|X. autotrophicus hybrid device after addition of a GS inhibitor. It is filed as cell-based, Xanthobacter autotrophicus. The text has this: A reactor used in the experiments included a biocompatible water splitting catalyst system including a cobalt-phosphorous (Co—P) alloy cathode for the hydrogen evolution reaction (HER) and a cobalt phosphate (CoPi) anode for the oxygen evolution reaction (OER). This system enabled the use of a low driving voltage (Eappl) while producing the desired hydrogen for use in producing ammonia. Specifically, NH3 synthesis from N2 and H2O was accomplished using the water splitting system and driving the N2 reduction reaction within H2-oxidizing, autotrophic microorganisms. In this case, Xanthobacter autotrophicus (X. autotrophicus) was used. X. autotrophicus is a gram-negative bacterium that belongs to a small group of diazotrophs, which at micro-aerobic condition (less than about 5% O2) can use H2 as their sole energy source to fix CO2 and N2 into biomass. Therefore, in this experimental setup, electrochemical water splitting generated H2 as the biological energy source and in the same reactor X. autotrophicus acted as the room-temperature N2 reduction reaction catalyst to convert H2 and N2 into NH3.
The electrodes included a Co—P cathode for the hydrogen evolution reaction and a CoPi anode for the oxygen evolution reaction. A gas mixture including 2% O2, 20% CO2, and 78% N2 was bubbled through the solution at a flow rate of greater than or equal to 5 mL/min to maintain a micro-aerobic environment.
At the beginning of each experiment, X. autotrophicus was inoculated into the organic-free minimal medium without any nitrogen supplement. A constant driving voltage (Eappl=3.0 V) was applied to the CoPi|Co—P catalyst system, and aliquots were periodically sampled for the quantification of biomass (optical density at 600 nm, OD600) as well as fixed nitrogen (colorimetric assay).
The hybrid device is capable of excreting synthesized NH3 into an extracellular medium. Previous biochemical assays and genome sequencing on this strain indicate that the NH3 generated from nitrogenase is incorporated into biomass via a two-step process mediated by glutamine synthetase (GS) and glutamate synthase (GOGAT) (FIGS. 1 and 5). If the functionality of this NH3 assimilation pathway is disrupted, direct production of an extracellular NH3 fertilizer solution is realized. It has been reported that GS inhibitors can be used for NH3 secretion in sugar-fementating diazotrophs. As a proof of principle, glufosinate (PPT), a specific GS inhibitor commercially used as herbicide, was used to block the NH3 assimilation pathway and allow the synthesized NH3 to passively diffuse out into the extracellular medium (pathway 2 in FIG. 1, and FIG. 5). After the addition of PPT, the biomass of X. autotrophicus stagnated, while Ntotal and the concentration of free NH3 in the solution (NNH3) increased (FIG. 6). […]

Where [1] appears, read: end of experiments, after PPT addition, n=3.

Consider `[HH]` [H2], for which the “inhibition constant Kis(D2)” value at nitrogenase is about 11 kPa.
In the case of `CP(=O)(O)CCC(N)C(=O)O` (centres unmarked) [PPT, glufosinate], the “biomass of X. autotrophicus after addition” value in the assay on X. autotrophicus (after the addition of PPT, FIG. 6) was “stagnated”. Further, the “concentration of free NH3 in the solution (NNH3)” value in the assay on X. autotrophicus (end of experiments, after PPT addition) is on record as about 0.8 mM. Also, in the assay on X. autotrophicus (setting [1]), the “accumulated Ntotal” value came to 47 ± 3 mg/L and the “concentration of free NH3 in the solution (NNH3)” value amounted to 11 ± 2 mg/L.
